{
  "source": "paper PMC6812191",
  "about": "(Heliyon, 2019)",
  "assay_type_in_all_cases": "cell-based",
  "key": {"hERG potassium channel [1]": {"target": "hERG potassium channel (Homo sapiens, UniProt Q12809)", "assay": "whole-cell patch clamp, tail current inhibition"}, "hERG potassium channel [2]": {"target": "hERG potassium channel (Homo sapiens, UniProt Q12809, T623A)", "assay": "whole-cell patch clamp, inhibition at […]"}, "hERG potassium channel [3]": {"target": "hERG potassium channel (Homo sapiens, UniProt Q12809, S624A)", "sequence (Q12809 whole entry S624A)": "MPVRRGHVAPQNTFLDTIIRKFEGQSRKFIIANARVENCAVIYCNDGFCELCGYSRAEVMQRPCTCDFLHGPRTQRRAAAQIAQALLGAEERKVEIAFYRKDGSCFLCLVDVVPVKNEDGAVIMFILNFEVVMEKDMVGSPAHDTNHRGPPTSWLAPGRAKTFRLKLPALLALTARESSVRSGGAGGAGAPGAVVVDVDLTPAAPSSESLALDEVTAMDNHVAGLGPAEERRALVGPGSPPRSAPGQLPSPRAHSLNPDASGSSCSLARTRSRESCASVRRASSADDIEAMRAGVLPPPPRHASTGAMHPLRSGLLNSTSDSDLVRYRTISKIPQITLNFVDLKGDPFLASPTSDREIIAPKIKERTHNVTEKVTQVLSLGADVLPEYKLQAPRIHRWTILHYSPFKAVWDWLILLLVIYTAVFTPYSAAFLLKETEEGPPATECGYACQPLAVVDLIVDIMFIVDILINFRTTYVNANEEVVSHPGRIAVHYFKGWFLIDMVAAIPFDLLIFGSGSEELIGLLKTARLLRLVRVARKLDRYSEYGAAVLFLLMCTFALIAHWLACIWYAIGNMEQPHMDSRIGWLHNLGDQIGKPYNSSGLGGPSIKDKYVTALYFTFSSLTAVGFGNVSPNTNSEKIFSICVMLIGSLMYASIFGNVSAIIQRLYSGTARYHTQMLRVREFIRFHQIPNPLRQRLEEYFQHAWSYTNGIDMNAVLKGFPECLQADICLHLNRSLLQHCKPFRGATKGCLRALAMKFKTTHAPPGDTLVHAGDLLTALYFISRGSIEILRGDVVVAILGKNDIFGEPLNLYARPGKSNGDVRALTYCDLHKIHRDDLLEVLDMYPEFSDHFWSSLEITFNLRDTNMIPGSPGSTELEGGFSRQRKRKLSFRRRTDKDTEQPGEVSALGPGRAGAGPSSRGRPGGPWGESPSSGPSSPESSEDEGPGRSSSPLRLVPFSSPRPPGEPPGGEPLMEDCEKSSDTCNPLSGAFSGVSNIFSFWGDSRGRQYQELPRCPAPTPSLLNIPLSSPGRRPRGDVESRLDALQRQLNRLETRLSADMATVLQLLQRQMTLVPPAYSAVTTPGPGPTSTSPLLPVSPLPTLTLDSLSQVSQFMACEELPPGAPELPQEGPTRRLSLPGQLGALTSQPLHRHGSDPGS", "assay": "whole-cell patch clamp, concentration response"}, "hERG potassium channel [4]": {"target": "hERG potassium channel (Homo sapiens, UniProt Q12809, F656A)", "sequence (Q12809 whole entry F656A)": "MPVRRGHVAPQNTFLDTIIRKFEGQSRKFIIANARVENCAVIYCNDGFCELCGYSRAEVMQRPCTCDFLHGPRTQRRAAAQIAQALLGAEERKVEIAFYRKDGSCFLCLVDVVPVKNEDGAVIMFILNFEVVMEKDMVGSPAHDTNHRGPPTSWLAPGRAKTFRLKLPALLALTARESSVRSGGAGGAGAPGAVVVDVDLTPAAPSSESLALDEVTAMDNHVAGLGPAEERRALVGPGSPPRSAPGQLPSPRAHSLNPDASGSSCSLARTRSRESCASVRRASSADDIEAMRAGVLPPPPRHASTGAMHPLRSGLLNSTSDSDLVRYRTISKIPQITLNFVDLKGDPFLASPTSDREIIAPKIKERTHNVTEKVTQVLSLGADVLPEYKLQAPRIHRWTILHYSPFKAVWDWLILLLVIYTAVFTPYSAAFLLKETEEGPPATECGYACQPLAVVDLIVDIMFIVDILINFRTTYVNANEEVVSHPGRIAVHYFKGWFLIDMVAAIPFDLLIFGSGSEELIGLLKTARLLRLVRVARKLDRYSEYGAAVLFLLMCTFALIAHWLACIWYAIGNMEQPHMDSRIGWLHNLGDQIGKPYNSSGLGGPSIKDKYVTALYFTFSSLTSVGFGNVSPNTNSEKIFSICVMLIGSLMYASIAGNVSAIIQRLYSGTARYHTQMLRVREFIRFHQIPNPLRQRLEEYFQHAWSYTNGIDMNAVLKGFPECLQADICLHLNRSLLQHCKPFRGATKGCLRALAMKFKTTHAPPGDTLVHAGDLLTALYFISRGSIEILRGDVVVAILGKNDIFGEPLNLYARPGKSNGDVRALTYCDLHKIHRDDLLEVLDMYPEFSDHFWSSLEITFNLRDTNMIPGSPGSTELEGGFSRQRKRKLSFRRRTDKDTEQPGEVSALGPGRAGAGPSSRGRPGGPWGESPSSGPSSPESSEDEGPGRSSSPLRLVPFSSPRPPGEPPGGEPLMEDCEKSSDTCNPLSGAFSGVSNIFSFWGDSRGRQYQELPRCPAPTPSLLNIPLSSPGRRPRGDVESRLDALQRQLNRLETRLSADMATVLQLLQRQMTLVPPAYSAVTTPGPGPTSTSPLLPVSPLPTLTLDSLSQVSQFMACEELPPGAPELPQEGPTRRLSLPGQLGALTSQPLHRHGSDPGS", "assay": "whole-cell patch clamp, inhibition at […]"}, "hERG potassium channel [5]": {"target": "hERG potassium channel (Homo sapiens, UniProt Q12809, V625A)", "sequence (Q12809 whole entry V625A)": "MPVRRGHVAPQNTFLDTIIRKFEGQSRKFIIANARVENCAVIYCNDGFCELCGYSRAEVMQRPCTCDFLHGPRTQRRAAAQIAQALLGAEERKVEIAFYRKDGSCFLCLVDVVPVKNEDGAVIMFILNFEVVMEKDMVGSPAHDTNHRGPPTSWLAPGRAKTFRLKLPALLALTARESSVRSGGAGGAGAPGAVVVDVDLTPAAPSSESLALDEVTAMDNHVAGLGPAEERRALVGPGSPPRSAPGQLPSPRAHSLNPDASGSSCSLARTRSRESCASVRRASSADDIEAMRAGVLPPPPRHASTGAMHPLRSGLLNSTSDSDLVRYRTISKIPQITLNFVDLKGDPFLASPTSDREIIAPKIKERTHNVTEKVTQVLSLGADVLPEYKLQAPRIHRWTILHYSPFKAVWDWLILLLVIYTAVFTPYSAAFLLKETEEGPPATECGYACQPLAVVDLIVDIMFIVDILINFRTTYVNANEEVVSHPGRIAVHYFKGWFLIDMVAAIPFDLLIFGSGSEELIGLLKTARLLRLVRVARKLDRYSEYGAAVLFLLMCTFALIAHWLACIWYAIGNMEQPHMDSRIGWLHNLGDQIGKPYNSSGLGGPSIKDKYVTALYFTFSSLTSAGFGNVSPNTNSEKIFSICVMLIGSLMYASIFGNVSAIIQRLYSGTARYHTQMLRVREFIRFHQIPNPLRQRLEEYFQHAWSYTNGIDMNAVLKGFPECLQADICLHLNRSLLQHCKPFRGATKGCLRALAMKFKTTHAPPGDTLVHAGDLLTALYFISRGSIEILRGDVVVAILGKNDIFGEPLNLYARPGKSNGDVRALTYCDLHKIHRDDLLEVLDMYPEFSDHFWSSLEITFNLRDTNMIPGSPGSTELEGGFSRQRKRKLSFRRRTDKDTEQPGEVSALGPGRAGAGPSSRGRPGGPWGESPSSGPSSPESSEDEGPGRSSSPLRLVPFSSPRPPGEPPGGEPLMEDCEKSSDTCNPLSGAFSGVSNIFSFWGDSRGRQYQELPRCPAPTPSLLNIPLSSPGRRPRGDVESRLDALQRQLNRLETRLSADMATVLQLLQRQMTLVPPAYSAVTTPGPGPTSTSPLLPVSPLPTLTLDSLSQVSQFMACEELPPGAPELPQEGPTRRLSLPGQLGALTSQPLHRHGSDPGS", "assay": "whole-cell patch clamp, inhibition at […]"}, "hERG potassium channel [6]": {"target": "hERG potassium channel (Homo sapiens, UniProt Q12809, Y652A)", "sequence (Q12809 whole entry Y652A)": "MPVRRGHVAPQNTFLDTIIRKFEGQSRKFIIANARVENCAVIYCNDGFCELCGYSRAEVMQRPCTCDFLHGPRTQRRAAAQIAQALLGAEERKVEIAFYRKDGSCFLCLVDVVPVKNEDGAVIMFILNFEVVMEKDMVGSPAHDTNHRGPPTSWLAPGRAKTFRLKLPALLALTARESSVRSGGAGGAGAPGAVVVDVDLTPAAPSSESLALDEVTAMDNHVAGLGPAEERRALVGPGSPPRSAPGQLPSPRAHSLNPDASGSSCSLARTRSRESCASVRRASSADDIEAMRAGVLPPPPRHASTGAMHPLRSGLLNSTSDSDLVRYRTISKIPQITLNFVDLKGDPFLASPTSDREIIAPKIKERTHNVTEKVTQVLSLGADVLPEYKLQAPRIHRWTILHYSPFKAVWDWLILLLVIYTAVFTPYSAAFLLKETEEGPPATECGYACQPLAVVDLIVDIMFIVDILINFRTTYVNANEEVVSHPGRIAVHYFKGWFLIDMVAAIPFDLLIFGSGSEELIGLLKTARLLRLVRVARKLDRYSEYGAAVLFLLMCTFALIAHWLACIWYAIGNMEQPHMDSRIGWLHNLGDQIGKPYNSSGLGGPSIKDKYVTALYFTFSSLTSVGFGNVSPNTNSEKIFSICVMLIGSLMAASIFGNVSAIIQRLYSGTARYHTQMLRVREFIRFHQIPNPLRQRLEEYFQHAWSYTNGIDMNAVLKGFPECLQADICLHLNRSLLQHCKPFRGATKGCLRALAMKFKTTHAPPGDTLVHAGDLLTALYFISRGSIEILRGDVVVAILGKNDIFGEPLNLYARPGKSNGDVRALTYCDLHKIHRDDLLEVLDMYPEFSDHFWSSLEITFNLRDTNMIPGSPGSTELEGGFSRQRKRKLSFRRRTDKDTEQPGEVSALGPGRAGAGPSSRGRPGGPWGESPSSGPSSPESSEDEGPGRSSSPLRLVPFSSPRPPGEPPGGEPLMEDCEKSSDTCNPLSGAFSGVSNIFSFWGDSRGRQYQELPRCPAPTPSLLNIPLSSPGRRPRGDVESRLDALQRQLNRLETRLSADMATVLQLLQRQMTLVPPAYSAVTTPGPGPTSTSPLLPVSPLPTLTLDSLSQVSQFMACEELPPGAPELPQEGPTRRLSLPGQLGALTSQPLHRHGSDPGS", "assay": "whole-cell patch clamp, inhibition at […]"}},
  "data": [
    {"compound": "CC1=C(O)C(=O)C=C2C1=CC=C1[C@@]2(C)CC[C@@]2(C)[C@@H]3C[C@](C)(C(=O)O)CC[C@]3(C)CC[C@]12C", "note": "[Celastrol]", "values": [
      {"measurement": "IC50", "setting": "hERG potassium channel [1]", "value": 830, "unit": "nM"},
      {"measurement": "inhibition at 1 µM", "setting": "hERG potassium channel [2]", "value": "36.2 ± 0.4", "unit": "%"},
      {"measurement": "IC50", "setting": "hERG potassium channel [3]", "value": "4000 ± 300", "unit": "nM"},
      {"measurement": "inhibition at 1 µM", "setting": "hERG potassium channel [4]", "value": "34.5 ± 1.5", "unit": "%"},
      {"measurement": "inhibition at 1 µM", "setting": "hERG potassium channel [5]", "value": "51.6 ± 4.3", "unit": "%"},
      {"measurement": "inhibition at 1 µM", "setting": "hERG potassium channel [6]", "value": "56.3 ± 1.6", "unit": "%"}
    ]}
  ]
}
